Legend:
Assay in all cases: In vivo efficacy, PDX tumor growth
Design in all cases: species or system human tumor in NOD/SCID mice
[1] = system: Breast-13 (BR13) triple-negative breast cancer (TNBC) PDX; details: 1 mg/kg
Excerpt: (§1) The effects of anti-PTK7 antibody-drug conjugates were further evaluated on the in vivo growth of human tumor patient-derived xenografts (PDX). Primary tumor resection samples were procured from clinical sites following Institutional Review Board for the Protection of Human Subjects approval and in accordance with HIPAA regulations. Tumor fragments were stored and shipped in Hypothermasol (Biolife Solutions) on ice and were embedded in Matrigel (BD) containing a proprietary mix of growth factors and implanted subcutaneously into the mammary fatpad of female NOD/SCID mice within 24 hours of resection. Mice were monitored for health status daily and for tumor growth initially by visual inspection twice per week. Once the tumors were palpable, measurements of tumor volume began to track tumor growth and estimate cell doubling time. Tumor volume was estimated using the equation V=(A*B^2)/2 where A is the long axis and B is the short axis. When tumors reached a volume of 500 mm^3 to 1,500 mm^3, they were harvested for study and for re-transplant as a patient-derived xenograft (PDX). Depending on the line, mechanical and/or chemical dissociation can be used to separate the individual cells for passage. Live cells were inoculated into naïve animals with 10,000 to 50,000 cells per animals
(§2) For efficacy studies, tumors were harvested from passaging studies and cells were dissociated into single cell suspension. Preparations were counted for live cells using Trypan blue exclusion and 10,000 to 50,000 cells were inoculated per mouse in Matrigel. […] Tumor growth was initially followed by palpability with measurements beginning once tumor volumes reached about 30 mm^3. Studies were randomized based on tumor size once a cohort of tumor-bearing mice reached 140 mm^3 to 180 mm^3. Animals were dosed by intraperitoneal injection twice a week for two weeks (q4dx4). Study groups were followed until individual mice or entire group tumor measurements reached 1200 mm^3 when sacrifice was indicated in accordance with IACUC protocol. For selected dosing studies, pharmacokinetic submandibular bleeds were performed at 2 hours, 36 hours and 72 hours. A volume of 10 μL of blood was immediately pipetted into 90 μL of HBS-P (GE Healthcare). Samples were stored at −80° C. prior to analysis. For each tumor measurement the tumor volume±standard error of the mean (SEM) is provided. GT=Group Terminated due to large tumor size.
(§3) Animals were dosed every four days for four cycles (Q4Dx4) by intraperitoneal injection except the BR5 study which was by intravenous injection on the same schedule. Tumor measurements were recorded one or two times per week using digital calipers and tumor volume was estimated using the equation V=(A×B^2)/2 where A is the long axis and B is the short axis. Animal body weights were measured and recorded at least once a week. Study groups were followed until individual mice or entire group tumor measurements reached 1200 mm^3 at which point sacrifice was indicated in accordance with IACUC protocol. For the BR5 study, animals were sacrificed once tumor volume approached 15% of the body weight at staging in accordance with IACUC protocol.
(§4) Tumor growth inhibition (TGI) was calculated using the equation % TGI=[1−(mean tumor volume of treated)/(mean tumor volume of vehicle)]. TGI was calculated at the latest possible time point, which was typically the last measurement before the control group was discontinued as described above. Tumor regression was defined as a reduction in mean tumor volume after dosing. In cases where tumors regressed, Time To Progression (TTP) indicates the number of days between the first does and the time at which mean tumor volume increased from the previous measurement to a statistically significant degree.

[2] = system: Breast-22 (BR22) TNBC PDX; details: 1.5 mg/kg
Excerpt: as §1, §2, §3
(§5) Tumor growth inhibition (TGI) was calculated using the equation % TGI=[1−(mean tumor volume of treated)/(mean tumor volume of vehicle)]. […] Tumor regression was defined as a reduction in mean tumor volume after dosing. In cases where tumors regressed, Time To Progression (TTP) indicates the number of days between the first does and the time at which mean tumor volume increased from the previous measurement to a statistically significant degree.

[3] = system: Breast-31 (BR31) TNBC PDX; details: 1.5 mg/kg
Excerpt: as §1, §2, §3, §5

[4] = system: non-small cell lung cancer-176 (LU176) PDX; details: 5 mg/kg
Excerpt: as §1, §2, §3, §4

[5] = system: non-small cell lung cancer-135 (LU135) PDX; details: 20 mg/kg
Excerpt: as §1, §2, §3, §4

COc1cccc2c1C(=O)c1c(O)c3c(c(O)c1C2=O)C[C@@](O)(C(=O)CO)C[C@@H]3O[C@H]1C[C@H](N)[C@H](O)[C@H](C)O1 [Doxorubicin, doxorubicin, reference compound]
tumor volume ± SEM ([1]; Day 0): 156 ± 13 mm^3
tumor volume ± SEM ([1]; Day 7): 219 ± 29 mm^3
tumor volume ± SEM ([1]; Day 14): 295 ± 39 mm^3
tumor volume ± SEM ([1]; Day 21): 353 ± 45 mm^3
tumor volume ± SEM ([1]; Day 28): 432 ± 50 mm^3
tumor volume ± SEM ([1]; Day 35): 696 ± 84 mm^3
tumor volume ± SEM ([1]; Day 42): 1001 ± 159 mm^3
tumor volume ± SEM ([2]; Day 0): 297 ± 17 mm^3
tumor volume ± SEM ([2]; Day 14): 641 ± 39 mm^3
tumor volume ± SEM ([3]; Day 0): 160 ± 11 mm^3
tumor volume ± SEM ([3]; Day 7): 304 ± 20 mm^3
tumor volume ± SEM ([3]; Day 28): 759 ± 111 mm^3

N.N.[Cl][Pt][Cl] [cisplatin, reference compound]
tumor volume ± SEM ([4]; Day 0): 259 ± 26 mm^3
tumor volume ± SEM ([4]; Day 7): 124 ± 30 mm^3
tumor volume ± SEM ([4]; Day 14): 97 ± 22 mm^3
tumor volume ± SEM ([4]; Day 21): 102 ± 24 mm^3
tumor volume ± SEM ([4]; Day 28): 179 ± 71 mm^3
tumor volume ± SEM ([4]; Day 35): 207 ± 69 mm^3
tumor volume ± SEM ([4]; Day 42): 297 ± 97 mm^3
tumor volume ± SEM ([4]; Day 49): 619 ± 262 mm^3

CC(=O)O[C@H]1C(=O)[C@@]2(C)[C@H]([C@H](OC(=O)c3ccccc3)[C@]3(O)C[C@H](OC(=O)[C@H](O)[C@@H](NC(=O)c4ccccc4)c4ccccc4)C(C)=C1C3(C)C)[C@]1(OC(C)=O)CO[C@@H]1C[C@@H]2O [paclitaxel, reference compound]
tumor volume ± SEM ([5]; Day 0): 175 ± 24 mm^3
tumor volume ± SEM ([5]; Day 7): 77 ± 13 mm^3
tumor volume ± SEM ([5]; Day 14): 58 ± 12 mm^3
tumor volume ± SEM ([5]; Day 21): 60 ± 11 mm^3
tumor volume ± SEM ([5]; Day 28): 93 ± 20 mm^3
tumor volume ± SEM ([5]; Day 35): 110 ± 31 mm^3
tumor volume ± SEM ([5]; Day 42): 184 ± 48 mm^3
tumor volume ± SEM ([5]; Day 49): 284 ± 78 mm^3
tumor volume ± SEM ([5]; Day 56): 384 ± 106 mm^3
tumor volume ± SEM ([5]; Day 63): 538 ± 178 mm^3
tumor volume ± SEM ([5]; Day 70): 667 ± 174 mm^3
tumor volume ± SEM ([5]; Day 77): 724 ± 171 mm^3
